Results published in patent publication US11684599B2, “Very-long-chain polyunsaturated fatty acids, elovanoid hydroxylated derivatives, and methods of use” (Board of Supervisors of Louisiana State University and …, priority 2017, dated 2023).

Key:
ARPE-19 cells under UOS = assay: Western blot of pro-survival and pro-apoptotic proteins in RPE cells under UOS; format: cell-based, human; settings: for pro-apoptotic protein Bax / pro-apoptotic protein Bid / pro-apoptotic protein Bim: ARPE-19 cells under UOS; for SIRT1 expression: RPE under UOS; for Prohibitin (type-1) expression: concentration-dependent (100 and 250 nM); for Sirtuin1 (SIRT1) expression: dose-dependent, 100-200 nM
Description: ARPE19 cells at 75-80% confluence (72 h growth in DMEM/F12+10% FBS) in 6-well plates were serum-starved for 8 h before exposure. The serum-starved cells were treated with TNF-α (Sigma-Aldrich, St. Louis, Mo.) (10 ng/ml) and H2O2 (600 μM) to induce oxidative stress and challenged with increasing concentrations (50-500 nM) of VLC-PUFA (C32:6n3 and C34:6n3) simultaneously with oxidative stress for 16 h (apoptosis) and 6 h (Western-blot) before detection of apoptosis and harvesting for protein analysis. In some experiments, DHA at a concentration of 100 nM and 15-LOX-1 inhibitor PD146176 at a concentration of 1 μM was added to treat the RPE cells under stress. Cell extracts were made and protein concentrations adjusted by Bio-Rad (Hercules, Calif.) protein reagent and used for Western blot analysis.
Bcl-2 family proteins, SIRT1 and Proinhibitin (type-1), and Iduna proteins were analyze by Western blot analysis. In brief, 20-25 μg equivalents of each cell extracts were subject to electrophoresis on a 4-12% gel (Promega) at 125 V for 2 h. The proteins were transferred to nitrocellulose membrane by I-blot transfer apparatus. The membranes were subjected to treatment with primary antibodies specific for Bcl-2, Bcl-xL, Bax, Bid, Bim, SIRT1 and Prohibitin (type-1) (Santa Cruz Biotechnology) and Iduna antibody (Neuro-Mab Lab, UCLA, Los Angeles, Calif.) overnight at 4° C. and probed for 45 mins with secondary antibody, goat anti-mouse Ig:horseradish peroxidase, and horseradish peroxidase-conjugated anti-biotin antibody, and then proteins were evaluated by using an ECL kit (Amersham).

[1] = tested on: cerebral-cortical mixed neuronal cells and hippocampal neurons; assay: NMDA excitotoxicity of neurons in culture, cell viability; format: cell-based, rat; settings: for neuroprotection against NMDA excitotoxicity (Hoechst): 500 nM, DIV 12; for neuroprotection against NMDA excitotoxicity (Hoechst) / synergy with NPD1 in neuroprotection against NMDA excitotoxicity: NMDA 100 μM; for neuroprotection against NMDA excitotoxicity (Hoechst) / synergy with NPD1 in neuroprotection against NMDA excitotoxicity / NMDA-induced neuronal death: 12 h; for synergy with NPD1 in neuroprotection against NMDA excitotoxicity: ELV 200 nM with NPD1 100 nM; for NMDA-induced neuronal death: ELV (Na or Me) 200 nM or 500 nM added along with NMDA 25, 50 or 100 μM; for neuroprotection with MK801 and NPD1 added together: compared with ELV-N32-Na or ELV-N32-Me alone
From the text: Primary cultures of cortical and hippocampal neurons were harvested from 18-day-old embryos (E18) taken from timed-pregnant, two-month-old Sprague-Dawley (SD) rats (Charles River Lab., Wilmington, Mass.). Briefly, timed-pregnant SD rats were euthanized and embryos were collected in sterile conditions. Embryonic brains were dissected out by forceps on ice and placed in a petri dish containing ice-cold Hank's Balanced Salt Solution (HBSS) (GIBCO). Meninges were removed under a dissecting microscope and cortical tissues were chopped into small pieces with micro-spring scissors. These tissues were transferred to 15 ml tubes containing trypsin-EDTA (0.025% in HBSS) and DNase I. The tubes were incubated in 37° C. chamber for 15 mins and were agitated every 5 mins. After stopping the trypsinization with 5 ml 10% FBS, these tissues were triturated 15 times with a fire polished Pasteur pipet. Cell clumps were left to settle for 2 mins and the supernatant was transferred to a 15 ml Eppendorf tube. The supernatant was filtered through a 70 μm pore-sized filter (Corning cell strainer) and centrifuged for 5 mins at 1000 rpm. The cells were then resuspended in Neurobasal medium (GIBCO) containing 2% B27 (GIBCO) and 2% N2 (GIBCO) supplements, along with 0.5 mM glutamine, 50 U/ml penicillin/streptomycin.
Cells were counted using a Neubauer hemocytometer. 1×10^6 cells were seeded on poly-D-lysine-coated 12 well cell culture dish (CORNING) and cultured in incubator (37° C., 5% CO2). Culture medium was first replaced after 24 h, then half of the medium was replaced with fresh medium every three days. As a result, approximately, 90% purity of neurons was obtained as determined by class-III-β tubulin, GFAP and Hoechst 33258 staining. Cells were maintained in culture for about 2 weeks until they were exposed to uncompensated oxidative stress, OGD, or NMDA excitotoxicity.
After 90 mins of OGD exposure, cells were returned to the original medium (Neurobasal medium (GIBCO) containing 2% B27 (GIBCO) and 2% N2 (GIBCO) supplements, along with 0.5 mM glutamine, 50 U/ml penicillin/streptomycin) and placed in a normoxic chamber (37° C., 5% CO2) for 2 h. Then the medium was changed with medium containing either ELV-N32 or ELV-N34 [500 nM] and maintained in a normoxic chamber (37° C., 5% CO2) for 12 h, after which cells were sampled and assayed for cell viability using different methods as previously described (25-28). Cerebral cortical mixed neuronal cells or hippocampal cells in culture were exposed to either NMDA or uncompensated oxidative stress (UOS) for 12 h by addition of either NMDA (25 μM, 50 μM, or 100 μM) concentration or by the addition of TNFα (10 ng/mL) and H2O2 (50 μM, 100 μM, or 200 μM). Cell viability and neuroprotection in the presence of ELV-N32, ELV-N34, 32:6, or 34:6 were assayed after 12 h.
Cells were washed with 1× Dulbecco's Phosphate Buffered Saline (DPBS) containing no calcium or magnesium (GIBCO) and fixed for 10 mins using ice-cold 4% paraformaldehyde (PFA) followed by 15 mins incubation in 100% methanol. Cells were washed with 1× Phosphate Buffered Saline (PBS) pH 7.4 (GIBCO) and incubated in PBS containing 20 μM Hoechst 33258 (Molecular Probes) for 20 mins. Cells were then washed 3 times with 1×PBS and stored in 1×PBS at 4° C. until they were imaged for microscopy.
One 4×4 tile mosaic was acquired from the center of each well using a Zeiss 510 Meta laser confocal microscope and LSM 510 Meta software. Images were imported into image analysis software ImageJ (National Institutes of Health, Bethesda, Md.) and batch processed using custom macros. An Otsu auto threshold was applied to each image of Hoechst-stained nuclei, and the area of each detected object was recorded. Objects with areas <10 μm^2 were excluded from analysis. To estimate percentage non-pyknotic nuclei, a size cutoff value was chosen above which objects were assumed to be non-pyknotic. […]

Compound	anti-apoptotic protein Bcl-2 (ARPE-19 cells under UOS; RPE cells under UOS)	anti-apoptotic protein Bcl-xL (ARPE-19 cells under UOS; RPE cells under UOS)	pro-apoptotic protein Bax (ARPE-19 cells under UOS; VLC-PUFA)	pro-apoptotic protein Bid (ARPE-19 cells under UOS; VLC-PUFA)	pro-apoptotic protein Bim (ARPE-19 cells under UOS; VLC-PUFA)	Iduna expression (ARPE-19 cells under UOS; VLC-PUFA, RPE cells under UOS)	SIRT1 expression (ARPE-19 cells under UOS; VLC-PUFA)	Prohibitin (type-1) expression (ARPE-19 cells under UOS; VLC-PUFA)	neuroprotection against NMDA excitotoxicity (Hoechst) [1]	Iduna expression (ARPE-19 cells under UOS; 200 nM)	Sirtuin1 (SIRT1) expression (ARPE-19 cells under UOS)	synergy with NPD1 in neuroprotection against NMDA excitotoxicity [1]	NMDA-induced neuronal death [1]	neuroprotection with MK801 and NPD1 added together [1]	also measured
CC/C=C\C/C=C\C/C=C\C/C=C\C/C=C\C/C=C\CCCCCCCCCCCCCCC(=O)O [34:6n3, (16Z,19Z,22Z,25Z,28Z,31Z)-tetratriaconta-16,19,22,25,28,31-hexaenoic acid]	upregulate	upregulate	down regulated	down regulated	down regulated	upregulation	upregulation	upregulation							NMDA receptor-mediated excitotoxicity ([1]; precursor at 500 nM): attenuates NMDA receptor-mediated excitotoxicity
CC/C=C\C/C=C\C/C=C\C/C=C\C/C=C\C/C=C\CCCCCCCCCCCCC(=O)O [32:6n3, (14Z,17Z,20Z,23Z,26Z,29Z)-dotriaconta-14,17,20,23,26,29-hexaenoic acid]	upregulate	upregulate	down regulated	down regulated	down regulated	upregulation	upregulation	upregulation							NMDA excitotoxicity ([1]; precursor at 250 nM): attenuate NMDA excitotoxicity
CC/C=C\C[C@H](O)\C=C/C=C/C=C/[C@H](O)C/C=C\C/C=C\CCCCCCCCCCCCCCC(=O)OC [ELV-N34-Me, methyl (16Z,19Z,22R,23E,25E,27Z,29S,31Z)-22,29-dihydroxytetratriaconta-16,19,23,25,27,31-hexaenoate]									neuroprotection elicited						
CC/C=C\C[C@H](O)\C=C/C=C/C=C/[C@H](O)C/C=C\C/C=C\CCCCCCCCCCCCCCC(=O)[O-].[Na+] [ELV-N34-Na, sodium (16Z,19Z,22R,23E,25E,27Z,29S,31Z)-22,29-dihydroxytetratriaconta-16,19,23,25,27,31-hexaenoate]	enhanced the abundance	enhanced the abundance								enhanced Iduna expression	upregulate				
CC/C=C\C[C@H](O)\C=C/C=C/C=C/[C@H](O)C/C=C\C/C=C\CCCCCCCCCCCCC(=O)[O-].[Na+] [ELV-N32-Na, sodium (14Z,17Z,20R,21E,23E,25Z,27S,29Z)-20,27-dihydroxydotriaconta-14,17,21,23,25,29-hexaenoate]	enhanced the abundance	enhanced the abundance							neuroprotection elicited	enhanced Iduna expression	upregulate	showed synergy	compensated for	improved the neuroprotection	relative potency in upregulating SIRT1 (ARPE-19 cells under UOS; ELV-N32-Na versus ELV-N34-Na): more potent than ELV-N34-Na
CC/C=C\C[C@H](O)\C=C/C=C/C=C/[C@H](O)C/C=C\C/C=C\CCCCCCCCCCCCC(=O)OC [ELV-N32-Me, methyl (14Z,17Z,20R,21E,23E,25Z,27S,29Z)-20,27-dihydroxydotriaconta-14,17,21,23,25,29-hexaenoate]												showed synergy	compensated for	improved the neuroprotection	relative potency of the combination with NPD1 ([1]; ELV-N32-Me plus NPD1 versus ELV-N32-Na plus NPD1): more potent
